Measurements as given in patent publication EP0745595A1, “3-(3-Aryloxyphenyl)-1-(substituted methyl)-s-triazine-2,4,6-oxo or thiotrione herbicidal agents” (American Cyanamid Company, priority 1995, dated 1996).

Columns and labels:
Format in all cases: in vivo
[1] = test system: CYPERUS IRIA; assay: Preemergence weed control under flooded paddy conditions, CYPIR (Rice Flatsedge); settings: preemergence, 3-4 weeks after treatment
Summary of the method: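 This preemergence test mimicked flooded paddy conditions: rice flatsedge propagules were sown in the upper 0.5 cm of silt loam in undrained 32 oz. containers (10.5 cm diameter), with water held 1.5 to 3 cm over the soil. After normal greenhouse care, plants were scored 0-9 for stand, vigor, malformation, size, chlorosis and appearance relative to controls.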

[2] = test system: ECHINOCHLOA CRUS-GALLI, (L) BEAU; assay: Preemergence herbicidal evaluation, ECHCG (Barnyardgrass); settings: rated four to five weeks after treatment
Summary of the method: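 In this preemergence herbicide test, cups holding seeds of ECHCG sown in potting soil over roughly one inch of soil were treated and then grown under conventional greenhouse care. Tests were ended four to five weeks after treatment, and injury was scored 0-9 from stand, vigor, malformation, size, chlorosis and overall appearance relative to a control.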

[3] = test system: SAGITTARIA PYGMAEA, L.; assay: Preemergence weed control under flooded paddy conditions, SAGPY (Arrowhead (Pygmaea)); settings: preemergence, 3-4 weeks after treatment
Summary of the method: (§1)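 In undrained pots of silt loam flooded to 1.5-3 cm, compounds are pipetted into the water before emergence at the equivalent of about 0.5, 0.25, 0.125 and 0.063 kg/ha. Plants are scored 0-9 for stand, vigor, malformation, size and chlorosis at test end (3-4 weeks).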

[4] = test system: ABUTILON THEOPHRASTI, MEDIC.; assay: Preemergence herbicidal evaluation, ABUTH (Velvetleaf); settings: rated four to five weeks after treatment
From the text: (§2) Results of herbicide evaluation are expressed on a rating scale (0-9). The scale is based upon a visual observation of plant stand, vigor, malformation, size, chlorosis and overall plant appearance as compared with a control.
(§3) The preemergence herbicidal activity of the test compounds of the present invention is exemplified by the following tests in which the seeds of a variety of monocotyledonous and dicotyledonous plants are separately mixed with potting soil and planted on top of approximately one inch of soil in separate pint cups. […] The treated cups are then placed on greenhouse benches, watered and cared for in accordance with conventional greenhouse procedures. From four to five weeks after treatment, the tests are terminated and each cup is examined and rated according to the rating system provided in Example 40.
(§4) The compounds evaluated are reported by compound number given in Example 40.

[5] = test system: ORYZA SATIVA, L. TEBONNET; assay: Rice tolerance to post-transplant applications under flooded paddy conditions, ORYSAT (Rice, Tebonnet); settings: post-transplant rice, 3-4 weeks after treatment
Summary of the method: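 Greenhouse pots of silt loam, each with two transplanted ten-day-old seedlings, are held under 1.5 to 3 cm of standing water. Three days later the compound is applied to the flooded surface at about 0.5, 0.25, 0.125 or 0.063 kg/ha. Damage is scored visually 0-9 after 3-4 weeks.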

[6] = test system: IPOMOEA SPP.; assay: Preemergence herbicidal evaluation, IPOSS (Morningglory spp.); settings: rated four to five weeks after treatment
From the text: as §2, §3, §4

[7] = test system: AMBROSIA ARTEMISIIFOLIA, L.; assay: Preemergence herbicidal evaluation, AMBEL (Ragweed, Common); settings: rated four to five weeks after treatment
Summary of the method: (§5)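 Seeds mixed with potting soil were planted on about one inch of soil in cups, then sprayed with aqueous acetone solution of test compound at about 0.125 to 0.50 kg per hectare. Plants grown under greenhouse conditions; visual rating on a 0-9 scale versus untreated control at 4-5 weeks.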

[8] = test system: CASSIA OBTUSIFOLIA, L.; assay: Preemergence herbicidal evaluation, CASOB (Sicklepod); settings: rated four to five weeks after treatment
Summary of the method: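 Preemergence herbicidal activity against sicklepod was assessed by planting seed mixed with potting soil atop about one inch of soil in pint cups. After treatment the cups were watered and handled per standard greenhouse practice. Tests ended four to five weeks later, with plant stand, vigor, malformation, size, chlorosis and overall appearance scored 0-9 relative to a control.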

[9] = test system: CYPERUS SEROTINUS, ROTTB.; assay: Preemergence weed control under flooded paddy conditions, CYPSE (Flatsedge); settings: preemergence, 3-4 weeks after treatment
Summary of the method: as §1

[10] = test system: SETARIA VIRIDIS, (L) BEAU; assay: Preemergence herbicidal evaluation, SETVI (Foxtail, Green); settings: rated four to five weeks after treatment
From the text: as §2, §3, §4

[11] = test system: CASSIA OBTUSIFOLIA, L.; assay: Postemergence herbicidal evaluation, CASOB (Sicklepod); set-up: key to CASOB rating / Herbicidal effect rating, CASOB / CASOB: 0-9 visual rating scale vs untreated control
Summary of the method: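 Postemergence foliar spray at approximately 0.125–0.500 kg/ha onto two-week seedlings; greenhouse hold, then 0–9 visual injury rating after 4–5 weeks.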

[12] = test system: ECHINOCHLOA ORYZOIDES (ARD.)FRITSCH; assay: Preemergence weed control under flooded paddy conditions, ECHORC (Watergrass (Calif.)); settings: 0.500 kg/ha, preemergence, 3-4 weeks after treatment
Summary of the method: as §1

[13] = test system: GLYCINE MAX(L) MERR. CV. WILLIAMS; assay: Preemergence herbicidal evaluation, GLXMAW (Soybean, Williams); settings: rated four to five weeks after treatment
Summary of the method: as §5

[14] = test system: TRITICUM AESTIVUM, CV. APOLLO; assay: Preemergence herbicidal evaluation, TRZAWO (Wheat, Winter, CV. APOLLO); settings: rated four to five weeks after treatment
Summary of the method: as §5

[15] = test system: AMBROSIA ARTEMISIIFOLIA, L.; assay: Postemergence herbicidal evaluation, AMBEL (Ragweed, Common)
Summary of the method: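 Postemergence herbicidal activity on AMBEL (common ragweed) was assessed on two-week-old seedlings grown in jiffy flats. Treatment solutions of 50/50 acetone/water with 0.5% TWEEN®20 surfactant were sprayed at 40 psi. After four to five weeks in the greenhouse, plants were scored 0-9 against a control for stand, vigor, malformation, size, chlorosis and overall appearance, with multiple tests averaged.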

[16] = test system: ECHINOCHLOA CRUS-GALLI, (L) BEAU; assay: Postemergence herbicidal evaluation, ECHCG (Barnyardgrass); set-up: key to ECHCG rating / Herbicidal effect rating, ECHCG / ECHCG: 0-9 visual rating scale vs untreated control
Summary of the method: (§6)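 Ratings (0-9) reflect visual stand, vigor, malformation, size and chlorosis compared with untreated plants, assessed 4-5 weeks after postemergence spraying. Treatment was applied to roughly two-week-old seedlings at about 0.125-0.500 kg/ha in acetone/water with 0.5% Tween 20; replicate tests were averaged.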

[17] = test system: SETARIA VIRIDIS, (L) BEAU; assay: Postemergence herbicidal evaluation, SETVI (Foxtail, Green); set-up: key to SETVI rating / Herbicidal effect rating, SETVI / SETVI: 0-9 visual rating scale vs untreated control
Summary of the method: as §6

[18] = test system: […], PRESL.; assay: Preemergence weed control under flooded paddy conditions, MOOVA (Monochoria); settings: 0.500 kg/ha, preemergence, 3-4 weeks after treatment
Summary of the method: as §1

SMILES: COC(=O)Cn1c(=O)n(C)c(=O)n(-c2cc(Oc3c(Cl)cccc3Cl)ccc2[N+](=O)[O-])c1=O [Compound 37, Methyl 3-[5-(2,6-dichlorophenoxy)-2-nitrophenyl]tetrahydro-5-methyl-2,4,6-trioxo-s-triazine-1(2H)-acetate]
- Herbicidal effect rating, CYPIR ([1]; 0.063 kg/ha): 0.0
- Herbicidal effect rating, CYPIR ([1]; 0.125 kg/ha): 0.0
- Herbicidal effect rating, CYPIR ([1]; 0.250 kg/ha): 0.0
- Herbicidal effect rating, CYPIR ([1]; 0.500 kg/ha): 0.0
- ECHCG herbicidal rating ([2]; Rate 0.125 kg/ha): 0.0
- ECHCG herbicidal rating ([2]; Rate 0.250 kg/ha): 0.0
- ECHCG herbicidal rating ([2]; Rate 0.500 kg/ha): 0.0
- Herbicidal effect rating, SAGPY ([3]; 0.063 kg/ha): 0.0
- Herbicidal effect rating, SAGPY ([3]; 0.125 kg/ha): 0.0
- Herbicidal effect rating, SAGPY ([3]; 0.250 kg/ha): 0.0
- Herbicidal effect rating, SAGPY ([3]; 0.500 kg/ha): 0.0
- ABUTH herbicidal rating ([4]; Rate 0.125 kg/ha): 0.0
- ABUTH herbicidal rating ([4]; Rate 0.250 kg/ha): 0.0
- ABUTH herbicidal rating ([4]; Rate 0.500 kg/ha): 0.0
- Herbicidal effect rating, ORYSAT ([5]; 0.063 kg/ha): 0.0
- Herbicidal effect rating, ORYSAT ([5]; 0.125 kg/ha): 1.0
- Herbicidal effect rating, ORYSAT ([5]; 0.250 kg/ha): 1.0
- Herbicidal effect rating, ORYSAT ([5]; 0.500 kg/ha): 2.0
- IPOSS herbicidal rating ([6]; Rate 0.125 kg/ha): 0.0
- IPOSS herbicidal rating ([6]; Rate 0.250 kg/ha): 0.0
- IPOSS herbicidal rating ([6]; Rate 0.500 kg/ha): 0.0
- AMBEL herbicidal rating ([7]; Rate 0.125 kg/ha): 0.0
- AMBEL herbicidal rating ([7]; Rate 0.250 kg/ha): 0.0
- AMBEL herbicidal rating ([7]; Rate 0.500 kg/ha): 0.0
- CASOB herbicidal rating ([8]; Rate 0.125 kg/ha): 0.0
- CASOB herbicidal rating ([8]; Rate 0.250 kg/ha): 0.0
- CASOB herbicidal rating ([8]; Rate 0.500 kg/ha): 0.0
- Herbicidal effect rating, CYPSE ([9]; 0.063 kg/ha): 0.0
- Herbicidal effect rating, CYPSE ([9]; 0.125 kg/ha): 0.0
- Herbicidal effect rating, CYPSE ([9]; 0.250 kg/ha): 0.0
- Herbicidal effect rating, CYPSE ([9]; 0.500 kg/ha): 0.0
- SETVI herbicidal rating ([10]; Rate 0.125 kg/ha): 0.0
- SETVI herbicidal rating ([10]; Rate 0.250 kg/ha): 0.0
- SETVI herbicidal rating ([10]; Rate 0.500 kg/ha): 0.0

SMILES: Cn1c(=O)n(CC(N)=O)c(=O)n(-c2cccc(Oc3ccc(C(F)(F)F)cc3Cl)c2)c1=O [Compound 46, 3-{5-[(2-Chloro-α,α,α-trifluoro-p-tolyl)-oxy]phenyl}tetrahydro-5-methyl-2,4,6-trioxo-s-triazine-1(2H)-acetamide]
- Herbicidal effect rating, CYPIR ([1]; 0.500 kg/ha): 0.0
- ECHCG herbicidal rating ([2]; Rate 0.125 kg/ha): 0.0
- ECHCG herbicidal rating ([2]; Rate 0.250 kg/ha): 0.0
- ECHCG herbicidal rating ([2]; Rate 0.500 kg/ha): 0.0
- CASOB rating ([11]; Rate 0.125 kg/ha): 0.0
- CASOB rating ([11]; Rate 0.250 kg/ha): 0.0
- CASOB rating ([11]; Rate 0.500 kg/ha): 0.0
- Herbicidal effect rating, SAGPY ([3]; 0.500 kg/ha): 0.0
- Herbicidal effect rating, ECHORC [12]: 0.0
- ABUTH herbicidal rating ([4]; Rate 0.125 kg/ha): 0.0
- ABUTH herbicidal rating ([4]; Rate 0.250 kg/ha): 0.0
- ABUTH herbicidal rating ([4]; Rate 0.500 kg/ha): 0.0
- GLXMAW herbicidal rating ([13]; Rate 0.125 kg/ha): 1.0
- GLXMAW herbicidal rating ([13]; Rate 0.250 kg/ha): 1.0
- GLXMAW herbicidal rating ([13]; Rate 0.500 kg/ha): 1.0
- Herbicidal effect rating, ORYSAT ([5]; 0.500 kg/ha): 0.0
- IPOSS herbicidal rating ([6]; Rate 0.125 kg/ha): 0.0
- IPOSS herbicidal rating ([6]; Rate 0.250 kg/ha): 0.0
- IPOSS herbicidal rating ([6]; Rate 0.500 kg/ha): 0.0
- TRZAWO herbicidal rating ([14]; Rate 0.125 kg/ha): 1.0
- TRZAWO herbicidal rating ([14]; Rate 0.250 kg/ha): 1.0
- TRZAWO herbicidal rating ([14]; Rate 0.500 kg/ha): 1.0
- AMBEL herbicidal rating ([7]; Rate 0.125 kg/ha): 0.0
- AMBEL herbicidal rating ([7]; Rate 0.250 kg/ha): 0.0
- AMBEL herbicidal rating ([7]; Rate 0.500 kg/ha): 0.0
- CASOB herbicidal rating ([8]; Rate 0.125 kg/ha): 0.0
- CASOB herbicidal rating ([8]; Rate 0.250 kg/ha): 0.0
- CASOB herbicidal rating ([8]; Rate 0.500 kg/ha): 0.0
- AMBEL rating ([15]; Rate 0.125 kg/ha): 0.0
- AMBEL rating ([15]; Rate 0.250 kg/ha): 0.0
- AMBEL rating ([15]; Rate 0.500 kg/ha): 0.0
- ECHCG rating ([16]; Rate 0.125 kg/ha): 0.0
- ECHCG rating ([16]; Rate 0.250 kg/ha): 0.0
- ECHCG rating ([16]; Rate 0.500 kg/ha): 0.0
- SETVI rating ([17]; Rate 0.125 kg/ha): 0.0
- SETVI rating ([17]; Rate 0.250 kg/ha): 0.0
- SETVI rating ([17]; Rate 0.500 kg/ha): 0.0
- Herbicidal effect rating, CYPSE ([9]; 0.500 kg/ha): 0.0
- Herbicidal effect rating, MOOVA [18]: 0.0
- SETVI herbicidal rating ([10]; Rate 0.125 kg/ha): 0.0
- SETVI herbicidal rating ([10]; Rate 0.250 kg/ha): 0.0
- SETVI herbicidal rating ([10]; Rate 0.500 kg/ha): 0.0
